Measurements reported in article PMC11003481, “Synthesis, biological evaluation, and computational studies of N-benzyl pyridinium–curcumin derivatives as potent AChE inhibitors with antioxidant activity” (Journal of Enzyme Inhibition and Medicinal Chemistry, 2023).
Several values for one entry are separate records, joined by “and”; a condition that tells them apart may be missing. Equal entries are not always repeated.

How the values were obtained:
[1] = molecular target: acetylcholinesterase (eeAChE, from Electrophorus electricus) (Electrophorus electricus, UniProt O42275); assay: biochemical; conditions: for Selectivity Index (SI) (AChE): Selectivity ratio [IC50(BChE)/IC50(AChE)]; for IC50: eeAChE, mean ± SEM of three independent experiments, duplicate samples, read-out: IC50 ± SEM AChE
Experimental: (§1) The AChE and BChE inhibitory activity assays were performed using a BioTek Epoch 2 microplate spectrophotometer in clear, flat-bottom 96-well plates. […] To each well, 295 µL phosphate buffer pH 8.0, 10 µL enzyme solution (AChE/BChE), and 10 µL target compound solutions were added together and allowed to stand for 4 min at room temperature. Then, 10 µL of 0.01 M solution freshly prepared Ellman’s reagent 5,5′-dithiobis(2-nitrobenzoic acid) (DTNB) was added to each well. The reaction in the wells was started by the addition of 2 µL of 0.075 M solution freshly prepared substrate (ATCh (acetylthiocholine iodide)/BTCh (S-butyrylthiocholine iodide)) solution. The solution was mixed immediately and incubated for 2:30 min for AChE or for 5 min for BChE inside the microplate reader at 26 °C. […] The IC50 values were calculated graphically by nonlinear regression analysis of inhibition curves that were obtained by plotting the logarithm of the inhibitor concentrations versus the percentage of inhibition (log(inhibitor) vs. normalised response) using GraphPad Prism 8 software (See Supplementary Information for details).

[2] = molecular target: T1, butyrylcholinesterase (eqBChE, from equine serum) (Equus caballus, UniProt P81908); assay: biochemical; conditions: mean ± SEM of three independent experiments, duplicate samples, read-out: IC50 ± SEM BChE
T1 construct: butyrylcholinesterase (eqBChE, from equine serum); from tissue; host or cells: equine serum
Experimental: as §1

eeAChE = eeAChE (Electrophorus electricus, UniProt O42275); assay: biochemical; type: biochemical; conditions: for Ki: from slopes of Lineweaver-Burk plots versus inhibitor concentration, substrate ATCh, read-out: Ki ± SEM eeAChE
Experimental: The slopes of the Lineweaver-Burk reciprocal plots against the concentrations of the compound (inhibitor) were plotted to obtain the Ki values for the prepared compounds (Table 1). The value at which the line intersects the x-axis is -Ki.
The assay was performed in triplicate using different inhibitor concentrations. […] The assay was carried out in clear, flat-bottom 96-well plates, to which 5 µL distilled water was added to all wells of columns 2–3, rows B-F. Then, 5 µL of the lowest concentration of inhibitor solution was added to the wells of columns 4–5, 5 µL of the median concentration of inhibitor solution was added to the wells of columns 6–7, and 5 µL of the highest concentration of inhibitor solution was added to the wells of columns 8–9. Next, 275 μL enzyme solution was added to the wells, and the plates were incubated for 4 min. Then, 10 μL 2.5 mM DTNB was added to the wells, followed by 10 μL of 32, 16, 8, 4, or 2 mM ATCh solutions to initiate the reactions. The plates were placed in a microplate reader for direct kinetic measurements.
The inhibition constant (Ki) for each inhibitor was calculated by averaging the ATCh hydrolysis rates from three independent experiments. Using GraphPad Prism 8 software, nonlinear regression was used to calculate the Km and Vmax values of the Michaelis-Menten kinetics by plotting [substrate] versus velocity. For the Lineweaver-Burk plots, linear regression was used to plot [1/ATCh] versus […]. Finally, the Ki values were obtained by plotting the slopes against [inhibitor] [20].

[3] = ABTS radical cation decolorisation antioxidant assay
Experimental: The antioxidant activity was determined using a radical cation (ABTS^.+) decolorisation assay, as described by Xiao et al.[21] with a few modifications. The assay used a BioTek Epoch 2 microplate spectrophotometer (Agilent, USA) with clear, flat-bottom 96-well plates. The 7 mmol/L ABTS^.+ stock solution was prepared by dissolving 96.02 mg ABTS in acetic acid buffer (pH 4.5) and to a final volume of 25 ml, which was kept in the dark at 0–4 °C. A 2.45 mmol/L potassium persulfate (K2S2O8) stock solution was prepared by dissolving 66.24 mg K2S2O8 in acetic acid buffer solution with pH 4.5, and then diluted to 100 ml and kept in the dark at 0–4 °C. The ABTS working solution was prepared by mixing similar quantities of 7 mmol/L ABTS and 2.45 mmol/L K2S2O8. This solution was stored in a dark cabinet for 16 h before use, when it was diluted with distilled water to obtain an absorbance of 0.70 at 734 nm. In a clear, flat-bottom 96-well plate, 200 μL of ABTS working solution and 10.0 μL sample solution at different concentrations (0.0312–0.5 mg/mL) were mixed well and incubated in the dark for 7 min before the absorbance was measured at 734 nm using a microplate reader. A blank was run for each assay, and all measurements were performed after 7 min. The ABTS scavenging capacity of inhibitors was compared with that of trolox and α-tocopherol. […]

Sequence of acetylcholinesterase (eeAChE, from Electrophorus electricus) (O42275 24-633): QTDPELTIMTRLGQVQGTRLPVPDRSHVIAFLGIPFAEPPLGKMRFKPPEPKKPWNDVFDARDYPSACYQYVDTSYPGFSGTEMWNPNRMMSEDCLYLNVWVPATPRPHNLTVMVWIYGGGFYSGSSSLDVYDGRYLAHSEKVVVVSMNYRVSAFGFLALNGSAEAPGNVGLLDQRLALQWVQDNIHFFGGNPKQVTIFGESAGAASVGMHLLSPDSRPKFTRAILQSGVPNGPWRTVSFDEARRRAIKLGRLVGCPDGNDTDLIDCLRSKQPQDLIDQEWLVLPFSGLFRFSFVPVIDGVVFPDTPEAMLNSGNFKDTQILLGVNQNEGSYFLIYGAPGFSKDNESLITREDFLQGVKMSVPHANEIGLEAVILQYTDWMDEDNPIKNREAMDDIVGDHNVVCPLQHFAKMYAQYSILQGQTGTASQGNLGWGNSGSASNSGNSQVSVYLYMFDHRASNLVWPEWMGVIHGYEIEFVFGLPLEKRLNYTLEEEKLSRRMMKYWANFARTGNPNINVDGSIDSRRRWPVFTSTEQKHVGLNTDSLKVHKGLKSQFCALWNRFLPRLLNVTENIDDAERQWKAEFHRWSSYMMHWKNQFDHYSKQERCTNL
Sequence of eeAChE (O42275 24-633): as above
T1 sequence (P81908 whole entry): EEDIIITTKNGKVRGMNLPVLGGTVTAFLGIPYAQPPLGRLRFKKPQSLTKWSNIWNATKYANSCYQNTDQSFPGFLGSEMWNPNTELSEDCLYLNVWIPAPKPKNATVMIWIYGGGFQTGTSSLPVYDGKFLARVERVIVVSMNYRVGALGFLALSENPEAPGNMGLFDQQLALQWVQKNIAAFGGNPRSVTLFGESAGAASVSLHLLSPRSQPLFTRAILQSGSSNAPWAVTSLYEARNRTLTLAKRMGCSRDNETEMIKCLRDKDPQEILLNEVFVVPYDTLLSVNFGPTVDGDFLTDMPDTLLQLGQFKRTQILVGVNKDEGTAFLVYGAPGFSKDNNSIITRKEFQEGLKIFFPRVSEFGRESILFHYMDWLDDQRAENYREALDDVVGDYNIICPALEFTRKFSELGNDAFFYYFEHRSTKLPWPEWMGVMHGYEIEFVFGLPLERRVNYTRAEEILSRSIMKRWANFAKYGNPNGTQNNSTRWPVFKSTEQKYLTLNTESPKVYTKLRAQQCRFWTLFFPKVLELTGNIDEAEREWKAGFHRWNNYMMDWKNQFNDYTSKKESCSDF

| SMILES | Selectivity Index (SI) (AChE) [1] | IC50 [1] | IC50 [2] | Ki (eeAChE) | ABTS Inhibition % ([3]; 0.0312 mg/mL) | ABTS Inhibition % ([3]; 0.0625 mg/mL) | ABTS Inhibition % ([3]; 0.125 mg/mL) | ABTS Inhibition % ([3]; 0.25 mg/mL) | ABTS Inhibition % ([3]; 0.5 mg/mL) | Type of AChE inhibition (Lineweaver-Burk pattern) (eeAChE; slopes and intercepts increased with inhibitor concentration) |
| --- | --- | --- | --- | --- | --- | --- | --- | --- | --- | --- |
| COc1cc(/C=C/C(=O)/C=C/c2cc[n+](Cc3ccc(F)cc3)cc2)ccc1O [7 g, 1–(4-Fluorobenzyl)-4-(1E,4E)-5–(4-hydroxy-3-methoxyphenyl)-3-oxopenta-1,4-dien-1-yl)pyridin-1-ium bromide] | 65 | 16 ± 0.18 nM | 1040 ± 81 nM | 6 ± 0.031 nM | 6.1 ± 0.82% | 13.9 ± 0.68% | 22.5 ± 0.77% | 30.2 ± 1.86% | 52.1 ± 1.58% | – |
| COc1cc(/C=C/C(=O)/C=C/c2ccc[n+](Cc3ccc(F)cc3)c2)ccc1O [8 g, 1–(4-Fluorobenzyl)-3-(1E,4E)-5–(4-hydroxy-3-methoxyphenyl)-3-oxopenta-1,4-dien-1-yl)pyridin-1-ium bromide] | 79 | 16 ± 0.24 nM | 1200 ± 97 nM | 10 ± 0.025 nM | 6.1 ± 0.71% | 13.7 ± 0.52% | 24.7 ± 0.51% | 39.5 ± 0.38% | – | – |
| O=C(/C=C/c1ccccc1)/C=C/c1cc[n+](Cc2ccccc2)cc1 [Compound 7a, 1-Benzyl-4-(1E,4E)-3-oxo-5-phenylpenta-1,4-dien-1-yl)pyridin-1-ium bromide] | 19 | 32 ± 0.22 nM | – | 39 ± 0.011 nM | 1.4 ± 0.56% | 1.5 ± 0.30% | 1.7 ± 0.68% | 3.5 ± 0.72% | 6.4 ± 0.47% | mixed-type inhibition |
| O=C(/C=C/c1ccccc1)/C=C/c1cc[n+](Cc2ccc(F)cc2)cc1 [Compound 7b] | 21 | 52 ± 0.18 nM | 1070 ± 80 nM | 56 ± 0.016 nM | 0.5 ± 0.47% | 1.4 ± 0.07% | 3.3 ± 0.10% | 6.2 ± 0.50% | 7.1 ± 0.59% | – |
| COc1cc(/C=C/C(=O)/C=C/c2cc[n+](Cc3ccccc3)cc2)ccc1O [Compound 7f, 1-Benzyl-4-(1E,4E)-5–(4-hydroxy-3-methoxyphenyl)-3-oxopenta-1,4-dien-1-yl)pyridin-1-ium bromide] | 55 | 7.5 nM | – | 6 ± 0.036 nM | 5.9 ± 0.47% | 13.7 ± 0.50% | 23.7 ± 0.51% | 35.5 ± 0.93% | 55.3 ± 1.42% | – |
| O=C(/C=C/c1ccccc1)/C=C/c1ccc[n+](Cc2ccccc2)c1 [Compound 8a, 1-Benzyl-3-(1E,4E)-3-oxo-5-phenylpenta-1,4-dien-1-yl)pyridin-1-ium bromide] | 14 | ≤ 56 nM and 56 nM | – | 102 ± 0.008 nM | 0.0 ± 0.70% | 0.3 ± 0.28% | 0.4 ± 0.36% | 1.4 ± 0.49% | 2.6 ± 0.38% | – |
| O=C(/C=C/c1ccccc1)/C=C/c1ccc[n+](Cc2ccc(F)cc2)c1 [Compound 8b, 1–(4-Fluorobenzyl)-3-(1E,4E)-3-oxo-5-phenylpenta-1,4-dien-1-yl)pyridin-1-ium bromide] | 7 | ≤ 56 nM and 54 nM | – | 90 ± 0.012 nM | 0.2 ± 0.40% | 0.3 ± 0.22% | 1.0 ± 0.52% | 2.3 ± 0.64% | 5.1 ± 0.62% | – |
| COc1cc(/C=C/C(=O)/C=C/c2ccc[n+](Cc3ccccc3)c2)ccc1O [Compound 8f, 1-Benzyl-3-(1E,4E)-5–(4-hydroxy-3-methoxyphenyl)-3-oxopenta-1,4-dien-1-yl)pyridin-1-ium bromide] | – | 17 ± 0.17 nM | 3500 ± 95 nM | 16 ± 0.022 nM | 7.7 ± 0.97% | 15.8 ± 0.18% | 25.4 ± 0.57% | 39.3 ± 0.23% | – | – |
| COc1cc(/C=C/C(=O)/C=C/c2ccc[n+](Cc3ccc([N+](=O)[O-])cc3)c2)ccc1O [Compound 8j, 3-(1E,4E)-5–(4-Hydroxy-3-methoxyphenyl)-3-oxopenta-1,4-dien-1-yl)-1–(4-nitrobenzyl)pyridin-1-ium bromide] | – | 660 ± 0.21 nM | 9800 ± 90 nM | – | – | – | – | – | – | – |
